Results: patent US20070196294A1, “Photostable sunscreen compositions comprising dibenzoylmethane compound UV-A filters and s-triazine compounds” (L'OREAL, priority 2006, published 2007)

Test: Photostability of formulations on PMMA sheets exposed in a Heraeus Suntest
Assay type: physicochemical
Conditions: formulations 9 and 10 versus control formulation 8
Description: Method for Measuring the Photostability:
For each formulation, constituents given in % by weight, 3 test samples and 3 control samples were prepared. 2 mg/cm^2 of formulation are deposited on poly(methyl methacrylate) sheets using a spatula.
The test sheets are exposed for 38 min to a Heraeus Suntest equipped with a xenon lamp having a UV-A flux of 9.51×10^−3 W/cm^2 and a UV-B flux of 5.43×10^−4 W/cm^2. The control sheets are stored for the same time and at the same temperature (38-40° C.) in darkness.
At the end of this time, the screening agents are extracted by immersing each sheet in 50 g of methanol and by subjecting them to ultrasound for 15 min in order to provide for good extraction. The solutions obtained are analyzed by HPLC and UV spectrophotometry.
For each formulation tested, the residual 4-(tert-butyl)-4′-methoxydibenzoylmethane level after exposure is given in the ratio of its optical density (OD) in the exposed sample to its unexposed optical density (OD). The positions adopted are the absorption maxima corresponding to butyl-methoxy-dibenzoylmethane: λmax=358 nm.

Structure (SMILES): CCCCOC(=O)c1ccc(Nc2nc(Nc3ccc(C=C(C(=O)OCC(C)(C)C)C(=O)OCC(C)(C)C)cc3)nc(Nc3ccc(C=C(C(=O)OCC(C)(C)C)C(=O)OCC(C)(C)C)cc3)n2)cc1 [Example 1, 2,4-bis(dineopentyl 4′-aminobenzalmalonate)-6-(butyl 4″-aminobenzoate)-s-triazine]
- Photostability of the dibenzoylmethane in the presence of the compound (result in words): improvement in the photostability of the dibenzoylmethane
